Assay: xn = mol fraction of the nth substance listed
Conditions: 100 kPa

CO + CC[n+]1ccn(CCOC)c1.O=S(=O)([N-]S(=O)(=O)C(F)(F)F)C(F)(F)F
viscosity (288.15 K, x2 = 0): 0.623 mPa·s
viscosity (293.15 K, x2 = 0): 0.58 mPa·s
viscosity (298.15 K, x2 = 0): 0.541 mPa·s
viscosity (303.15 K, x2 = 0): 0.505 mPa·s

CC[n+]1ccn(CCOC)c1.O=S(=O)([N-]S(=O)(=O)C(F)(F)F)C(F)(F)F + CO
viscosity (288.15 K, x1 = 0.1): 1.982 mPa·s
viscosity (288.15 K, x1 = 0.1997): 4.2 mPa·s
viscosity (288.15 K, x1 = 0.3966): 11.27 mPa·s
viscosity (288.15 K, x1 = 0.6953): 30.4 mPa·s
viscosity (288.15 K, x1 = 0.9016): 47.6 mPa·s
viscosity (288.15 K, x1 = 1): 54.62 mPa·s
viscosity (293.15 K, x1 = 0.1): 1.791 mPa·s
viscosity (293.15 K, x1 = 0.1997): 3.71 mPa·s
viscosity (293.15 K, x1 = 0.2999): 6.22 mPa·s
viscosity (293.15 K, x1 = 0.3966): 9.6 mPa·s
viscosity (293.15 K, x1 = 0.5): 13.37 mPa·s
viscosity (293.15 K, x1 = 0.5984): 18.95 mPa·s
viscosity (293.15 K, x1 = 0.6953): 25.01 mPa·s
viscosity (293.15 K, x1 = 0.7934): 30.37 mPa·s
viscosity (293.15 K, x1 = 0.9016): 38.28 mPa·s
viscosity (298.15 K, x1 = 0.1997): 3.297 mPa·s
viscosity (298.15 K, x1 = 0.3966): 8.27 mPa·s
viscosity (298.15 K, x1 = 0.5): 11.39 mPa·s
viscosity (298.15 K, x1 = 0.5984): 16.24 mPa·s
viscosity (298.15 K, x1 = 0.6953): 20.9 mPa·s
viscosity (298.15 K, x1 = 0.7934): 25.15 mPa·s
viscosity (298.15 K, x1 = 0.9016): 31.34 mPa·s
viscosity (298.15 K, x1 = 1): 35.49 mPa·s
viscosity (303.15 K, x1 = 0.1): 1.486 mPa·s
viscosity (303.15 K, x1 = 0.1997): 2.951 mPa·s
viscosity (303.15 K, x1 = 0.3966): 7.21 mPa·s
viscosity (303.15 K, x1 = 0.5984): 13.93 mPa·s
viscosity (303.15 K, x1 = 0.6953): 17.85 mPa·s
viscosity (303.15 K, x1 = 0.7934): 21.12 mPa·s
viscosity (303.15 K, x1 = 0.9016): 26.04 mPa·s
viscosity (308.15 K, x1 = 0.1): 1.362 mPa·s
viscosity (308.15 K, x1 = 0.5): 8.55 mPa·s
viscosity (308.15 K, x1 = 0.6953): 15.37 mPa·s
viscosity (308.15 K, x1 = 0.9016): 21.94 mPa·s
viscosity (308.15 K, x1 = 1): 24.58 mPa·s
viscosity (313.15 K, x1 = 0.1): 1.252 mPa·s
viscosity (313.15 K, x1 = 0.1997): 2.408 mPa·s
viscosity (313.15 K, x1 = 0.2999): 3.827 mPa·s
viscosity (313.15 K, x1 = 0.3966): 5.611 mPa·s
viscosity (313.15 K, x1 = 0.5): 7.51 mPa·s
viscosity (313.15 K, x1 = 0.9016): 18.75 mPa·s
viscosity (313.15 K, x1 = 1): 20.86 mPa·s
viscosity (318.15 K, x1 = 0.1): 1.155 mPa·s
viscosity (318.15 K, x1 = 0.1997): 2.193 mPa·s
viscosity (318.15 K, x1 = 0.3966): 5.009 mPa·s
viscosity (318.15 K, x1 = 0.5): 6.66 mPa·s
viscosity (318.15 K, x1 = 0.5984): 9.11 mPa·s
viscosity (318.15 K, x1 = 0.6953): 11.53 mPa·s
viscosity (318.15 K, x1 = 0.7934): 13.65 mPa·s
viscosity (318.15 K, x1 = 0.9016): 16.34 mPa·s
viscosity (318.15 K, x1 = 1): 18.03 mPa·s

— a compilation of properties of binary mixtures (doi:10.1021/acs.jced.0c00298)
